For 1 molecule, IC50 results are on record in publication PMC3331904 (2012).

In the experiment the target is TORC1 (TOR complex 1 kinase) (Saccharomyces cerevisiae, UniProt P35169). Put plainly: TORC1 in vitro kinase assay. Type of experiment: biochemical.
Chain of TORC1 (TOR complex 1 kinase) (P35169 whole entry): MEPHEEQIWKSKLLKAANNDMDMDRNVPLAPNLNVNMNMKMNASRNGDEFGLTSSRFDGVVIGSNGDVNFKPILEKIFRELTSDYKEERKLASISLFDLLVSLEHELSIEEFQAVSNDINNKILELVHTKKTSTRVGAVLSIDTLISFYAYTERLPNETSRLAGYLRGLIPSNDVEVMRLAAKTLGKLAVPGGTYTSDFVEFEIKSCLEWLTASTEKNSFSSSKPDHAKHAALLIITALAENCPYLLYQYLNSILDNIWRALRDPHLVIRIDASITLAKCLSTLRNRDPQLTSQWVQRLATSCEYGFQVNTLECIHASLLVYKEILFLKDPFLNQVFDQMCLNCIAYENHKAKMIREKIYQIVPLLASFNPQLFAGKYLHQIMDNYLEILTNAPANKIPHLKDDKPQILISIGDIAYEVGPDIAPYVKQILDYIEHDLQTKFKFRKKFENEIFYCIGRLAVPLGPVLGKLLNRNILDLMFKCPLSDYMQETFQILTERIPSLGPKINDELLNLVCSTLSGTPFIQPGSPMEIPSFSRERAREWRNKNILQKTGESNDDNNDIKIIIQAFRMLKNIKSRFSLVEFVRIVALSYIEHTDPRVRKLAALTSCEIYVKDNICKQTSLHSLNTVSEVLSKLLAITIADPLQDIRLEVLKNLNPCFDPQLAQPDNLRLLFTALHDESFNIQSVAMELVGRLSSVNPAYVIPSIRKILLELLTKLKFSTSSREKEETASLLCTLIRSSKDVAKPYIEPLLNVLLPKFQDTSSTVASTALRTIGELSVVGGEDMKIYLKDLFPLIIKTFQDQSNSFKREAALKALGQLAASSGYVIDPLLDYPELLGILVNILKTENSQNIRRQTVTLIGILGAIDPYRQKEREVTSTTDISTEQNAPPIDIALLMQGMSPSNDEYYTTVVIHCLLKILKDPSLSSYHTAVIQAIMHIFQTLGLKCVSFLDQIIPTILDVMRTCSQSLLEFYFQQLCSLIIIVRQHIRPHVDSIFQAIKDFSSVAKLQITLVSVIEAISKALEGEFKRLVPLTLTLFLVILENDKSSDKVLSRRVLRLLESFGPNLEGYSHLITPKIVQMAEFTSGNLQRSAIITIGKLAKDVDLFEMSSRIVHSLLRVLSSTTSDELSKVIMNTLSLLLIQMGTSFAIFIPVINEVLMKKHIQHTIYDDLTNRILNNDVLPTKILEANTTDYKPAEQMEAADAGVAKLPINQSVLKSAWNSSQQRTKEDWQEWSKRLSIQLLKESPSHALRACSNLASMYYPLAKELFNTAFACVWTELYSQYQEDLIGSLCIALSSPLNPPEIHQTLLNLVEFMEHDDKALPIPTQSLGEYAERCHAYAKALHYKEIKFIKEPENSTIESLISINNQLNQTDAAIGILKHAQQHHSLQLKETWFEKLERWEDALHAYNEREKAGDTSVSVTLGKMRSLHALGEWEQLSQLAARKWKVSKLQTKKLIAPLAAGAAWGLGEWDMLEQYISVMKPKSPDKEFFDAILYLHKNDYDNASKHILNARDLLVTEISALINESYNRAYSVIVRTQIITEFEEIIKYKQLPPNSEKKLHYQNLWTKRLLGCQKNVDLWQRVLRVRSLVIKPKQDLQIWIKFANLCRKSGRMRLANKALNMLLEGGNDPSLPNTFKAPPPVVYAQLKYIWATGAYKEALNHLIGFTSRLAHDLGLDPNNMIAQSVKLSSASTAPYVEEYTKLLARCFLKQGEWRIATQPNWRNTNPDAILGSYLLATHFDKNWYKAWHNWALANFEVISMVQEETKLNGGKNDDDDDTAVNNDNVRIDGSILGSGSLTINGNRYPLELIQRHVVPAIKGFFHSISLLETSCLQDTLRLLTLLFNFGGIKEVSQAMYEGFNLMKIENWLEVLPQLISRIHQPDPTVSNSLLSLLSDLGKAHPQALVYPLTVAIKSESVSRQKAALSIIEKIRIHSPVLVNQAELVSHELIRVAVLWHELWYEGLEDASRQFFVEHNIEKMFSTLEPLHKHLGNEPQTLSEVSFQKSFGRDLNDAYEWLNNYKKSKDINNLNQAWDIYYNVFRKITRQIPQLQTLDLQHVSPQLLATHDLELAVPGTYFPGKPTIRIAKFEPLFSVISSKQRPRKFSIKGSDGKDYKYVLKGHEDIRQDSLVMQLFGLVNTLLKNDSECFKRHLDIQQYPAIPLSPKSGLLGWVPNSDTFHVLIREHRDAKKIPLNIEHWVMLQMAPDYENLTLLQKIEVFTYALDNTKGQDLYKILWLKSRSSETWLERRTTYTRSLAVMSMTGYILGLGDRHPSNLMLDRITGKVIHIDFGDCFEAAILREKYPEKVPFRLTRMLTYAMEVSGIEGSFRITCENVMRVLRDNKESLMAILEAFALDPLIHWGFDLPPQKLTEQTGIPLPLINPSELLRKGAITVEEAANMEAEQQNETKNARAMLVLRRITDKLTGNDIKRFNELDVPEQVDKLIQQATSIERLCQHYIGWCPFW
Chain of TORC1 (TOR complex 1 kinase) (P38873 whole entry partner): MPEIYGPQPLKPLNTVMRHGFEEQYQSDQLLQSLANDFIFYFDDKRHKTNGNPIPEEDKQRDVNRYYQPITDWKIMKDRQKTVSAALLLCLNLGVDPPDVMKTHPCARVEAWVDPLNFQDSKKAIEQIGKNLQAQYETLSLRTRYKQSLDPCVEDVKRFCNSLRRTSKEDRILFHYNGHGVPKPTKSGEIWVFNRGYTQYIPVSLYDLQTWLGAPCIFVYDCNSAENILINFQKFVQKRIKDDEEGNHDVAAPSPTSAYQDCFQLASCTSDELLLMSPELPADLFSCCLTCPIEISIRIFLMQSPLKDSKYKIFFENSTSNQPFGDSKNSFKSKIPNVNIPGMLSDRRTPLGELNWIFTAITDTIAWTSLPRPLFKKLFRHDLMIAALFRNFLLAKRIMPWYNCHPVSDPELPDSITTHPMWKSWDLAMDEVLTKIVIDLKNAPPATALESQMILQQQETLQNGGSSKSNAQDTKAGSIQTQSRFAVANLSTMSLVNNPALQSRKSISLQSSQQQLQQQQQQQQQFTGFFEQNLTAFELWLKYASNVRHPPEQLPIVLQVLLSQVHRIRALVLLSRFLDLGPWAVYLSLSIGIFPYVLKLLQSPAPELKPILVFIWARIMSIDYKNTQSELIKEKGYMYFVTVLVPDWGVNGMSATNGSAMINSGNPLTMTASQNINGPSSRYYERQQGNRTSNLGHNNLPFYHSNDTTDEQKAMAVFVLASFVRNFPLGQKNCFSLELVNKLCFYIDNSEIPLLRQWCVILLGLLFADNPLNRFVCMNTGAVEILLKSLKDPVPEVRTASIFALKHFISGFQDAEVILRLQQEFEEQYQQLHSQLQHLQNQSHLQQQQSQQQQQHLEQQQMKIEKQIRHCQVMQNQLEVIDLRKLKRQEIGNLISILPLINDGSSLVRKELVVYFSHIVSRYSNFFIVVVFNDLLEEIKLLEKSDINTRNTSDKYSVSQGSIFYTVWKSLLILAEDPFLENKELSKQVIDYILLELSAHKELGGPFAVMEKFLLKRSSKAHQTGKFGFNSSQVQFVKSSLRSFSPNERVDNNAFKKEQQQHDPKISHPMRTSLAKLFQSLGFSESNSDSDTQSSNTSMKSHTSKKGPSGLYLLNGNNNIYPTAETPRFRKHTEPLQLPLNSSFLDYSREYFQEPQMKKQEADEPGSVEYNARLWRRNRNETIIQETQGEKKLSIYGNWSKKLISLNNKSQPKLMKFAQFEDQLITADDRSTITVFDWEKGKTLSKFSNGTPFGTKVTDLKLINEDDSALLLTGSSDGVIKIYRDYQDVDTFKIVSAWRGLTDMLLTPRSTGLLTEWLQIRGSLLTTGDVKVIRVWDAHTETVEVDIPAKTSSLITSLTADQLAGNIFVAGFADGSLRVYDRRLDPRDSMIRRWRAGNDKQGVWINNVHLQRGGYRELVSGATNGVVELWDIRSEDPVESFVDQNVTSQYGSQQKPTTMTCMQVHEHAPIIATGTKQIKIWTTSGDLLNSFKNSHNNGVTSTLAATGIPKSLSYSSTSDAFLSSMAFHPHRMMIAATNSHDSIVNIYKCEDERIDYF

As a reminder, the IC50 is the concentration that gives 50% inhibition. A higher IC50 goes with lower potency. In the case of `CNc1nc(N)c([N+](=O)[O-])c(Nc2cccc(F)c2)n1` [CID 3528206], the IC50 is roughly 0.15 µM.
